From ChEMBL document CHEMBL1201862, “PubChem BioAssay data set” (2004) come the findings set out here.

Test systems include OVCAR-4; HCT-15; K562; SF-295; DU-145; SK-MEL-2; UO-31; A498; RPMI-8226; MCF7; HOP-92; U-251; OVCAR-3; HCT-116; SW-620; MDA-MB-435; UACC-257; Malme-3M; NCI-H522.
What all share (test): DTP human tumour cell line panel, 48 h

SMILES strings stand for the structures.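 Method: 48-hour compound exposure of cells in 96-well plates, five concentrations, linear interpolation of endpoints. GI50 marks 50% less growth.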 Activity calls are given as the source filed them. Cut-off read from the data, not from the text of the source: active = GI50 up to about 1.1 µM and inactive = higher.

Turning to `O=C1CC(=O)N(C2CCCCC2)C(=O)N1c1ccccc1S(=O)(=O)Oc1ccccc1`, the GI50 with OVCAR-4 was > 100 µM (inactive); in the assay with HCT-15 it was greater than 100 µM; in the assay on K562 it was 26.9 µM (inactive); with SF-295 it was > 100 µM (inactive); with DU-145 it was > 100 µM (inactive); with SK-MEL-2, > 100 µM (inactive). Moreover, the GI50 with UO-31 is 18.1 µM (inactive); with A498 it was > 100 µM (inactive); in the assay with RPMI-8226 it was 26.5 µM (inactive); in the assay on MCF7 it was > 100 µM (inactive); in the assay on HOP-92 it was 12.9 µM (inactive); in the assay with U-251, > 100 µM (inactive). The GI50 with OVCAR-3, in the assay with HCT-116, in the assay on SW-620, with MDA-MB-435 and with UACC-257 was > 100 µM (inactive) each time.
As to `COc1ccc(NC(=O)CC/C(CC(=O)c2ccco2)=N/Nc2ccc([N+](=O)[O-])cc2[N+](=O)[O-])cc1`, the GI50 with OVCAR-4 is 96.2 µM (inactive); in the assay on HCT-15, greater than 100 µM; in the assay on K562 it was 32 µM (inactive); with SF-295, 62.1 µM (inactive); in the assay on SK-MEL-2, 72.1 µM (inactive); in the assay with UO-31, > 100 µM (inactive). Further, the GI50 in the assay with A498 is > 100 µM (inactive); with RPMI-8226, 17.1 µM (inactive); in the assay with HOP-92, 34.4 µM (inactive); in the assay with U-251 it was > 100 µM (inactive); in the assay with OVCAR-3 it was 42.6 µM (inactive); in the assay on HCT-116, 76.2 µM (inactive). The GI50 is 99.8 µM (inactive) in the assay with SW-620, > 100 µM (inactive) in the assay with Malme-3M, 55 µM (inactive) in the assay on NCI-H522 and 49.8 µM (inactive) in the assay with UACC-257.
Turning to `O=C1Oc2ccccc2C(=O)/C1=C/NC(=S)NCc1ccccc1`, the GI50 in the assay with OVCAR-4 was 73.8 µM (inactive); with HCT-15 it was 49.5 µM; in the assay with SF-295, 55.6 µM (inactive); with DU-145 it was 93.1 µM (inactive); in the assay with SK-MEL-2, 19.3 µM (inactive); with UO-31 it was 16.2 µM (inactive). Also, the GI50 in the assay with MCF7 was > 100 µM (inactive); with HOP-92 it was > 100 µM (inactive); in the assay on U-251 it was 57.3 µM (inactive); in the assay on OVCAR-3, > 100 µM (inactive); with HCT-116 it was 53.8 µM (inactive); in the assay with SW-620 it was 99.1 µM (inactive). The GI50 in the assay on MDA-MB-435 was 54.3 µM (inactive); in the assay on UACC-257 it was 90.6 µM (inactive).
As for `COCCCCCC(=O)CP(=O)(OC)OC`, the GI50 in the assay on HCT-15 was greater than 100 µM; in the assay on K562, > 100 µM (inactive); in the assay on SF-295 it was > 100 µM (inactive); with SK-MEL-2, > 100 µM (inactive); in the assay with UO-31, > 100 µM (inactive); with A498, > 100 µM (inactive). Moreover, the GI50 in the assay on RPMI-8226, in the assay on HOP-92, with U-251, in the assay on OVCAR-3, with HCT-116 and with SW-620 was > 100 µM (inactive) each time. The GI50 with Malme-3M, with NCI-H522 and in the assay with UACC-257 was > 100 µM (inactive) each time.
For the compound `O=C(CCc1nnc2s/c(=C\c3ccccc3)c(=O)n12)Nc1cc(Cl)ccc1Cl`, the GI50 with OVCAR-4 is > 100 µM (inactive); with HCT-15, 34.2 µM; in the assay with K562, > 100 µM (inactive); in the assay with SF-295, > 100 µM (inactive); in the assay with SK-MEL-2 it was > 100 µM (inactive); in the assay on UO-31, > 100 µM (inactive). Besides, the GI50 is > 100 µM (inactive) with A498; > 100 µM (inactive) with RPMI-8226; > 100 µM (inactive) with HOP-92; > 100 µM (inactive) in the assay with U-251; > 100 µM (inactive) in the assay with OVCAR-3; 24 µM (inactive) in the assay on HCT-116. For the same compound, the GI50 is 4.15 µM (inactive) in the assay on SW-620, > 100 µM (inactive) in the assay on Malme-3M, > 100 µM (inactive) in the assay on NCI-H522 and > 100 µM (inactive) in the assay on UACC-257.
For `Clc1cccc(-c2nc3cccc4c3n2Cc2ncccc2-4)c1`, the GI50 is 36 µM (inactive) in the assay with OVCAR-4; greater than 100 µM in the assay on HCT-15; > 100 µM (inactive) in the assay on K562; 41.6 µM (inactive) in the assay with SF-295; > 100 µM (inactive) in the assay on DU-145; > 100 µM (inactive) in the assay on A498. Besides, the GI50 in the assay with MCF7 was > 100 µM (inactive); in the assay with HOP-92, 44.6 µM (inactive); in the assay on U-251, 30.3 µM (inactive); in the assay on OVCAR-3 it was 32.1 µM (inactive); in the assay on HCT-116 it was > 100 µM (inactive); in the assay on SW-620, > 100 µM (inactive). For the same compound, the GI50 in the assay on Malme-3M, with MDA-MB-435, in the assay with NCI-H522 and with UACC-257 was > 100 µM (inactive) in each case.
Regarding `c1ccc(/N=C2\c3ccccc3C3=NCCCN32)cc1`, the GI50 was 42.2 µM (inactive) with OVCAR-4; 35.6 µM in the assay on HCT-15; 29.2 µM (inactive) in the assay with K562; 92 µM (inactive) with SF-295; 86.5 µM (inactive) with SK-MEL-2; 29.2 µM (inactive) with UO-31. The GI50 in the assay with A498 is 43.2 µM (inactive); in the assay on RPMI-8226, 30.5 µM (inactive); in the assay with HOP-92, 13.8 µM (inactive); with U-251, > 100 µM (inactive); with OVCAR-3, 75 µM (inactive); in the assay with HCT-116, 40.2 µM (inactive). For the same compound, the GI50 with SW-620 is 43.9 µM (inactive); in the assay on Malme-3M, 62.8 µM (inactive); with NCI-H522, 18.1 µM (inactive); in the assay on UACC-257, 40.4 µM (inactive).
For the compound `CCC(C)c1cccc(C)c1NC(=O)C(=O)Cc1nc2ccccc2s1` (configuration not stated), the GI50 is > 100 µM (inactive) in the assay on OVCAR-4; greater than 100 µM in the assay on HCT-15; > 100 µM (inactive) in the assay on K562; > 100 µM (inactive) in the assay on SF-295; > 100 µM (inactive) in the assay on SK-MEL-2; > 100 µM (inactive) in the assay with UO-31. For the same compound, the GI50 in the assay with A498, in the assay with RPMI-8226, with HOP-92, with U-251, with OVCAR-3 and in the assay on HCT-116 was > 100 µM (inactive) throughout. The GI50 with SW-620, with Malme-3M, with NCI-H522 and with UACC-257 was > 100 µM (inactive) throughout.
Take `ClCc1c(-c2ccccc2)nn(-c2ccccc2)c1CCl`: the GI50 with OVCAR-4 is 1.65 µM (inactive); with HCT-15, 12.2 µM; in the assay on SF-295, 17.2 µM (inactive); with DU-145, 14 µM (inactive); in the assay with SK-MEL-2 it was 13.2 µM (inactive); with UO-31 it was 20.1 µM (inactive). Besides, the GI50 is 2.26 µM (inactive) with RPMI-8226; 8.2 µM (inactive) in the assay on MCF7; 2.81 µM (inactive) with HOP-92; 12.3 µM (inactive) in the assay on U-251; 13.5 µM (inactive) with OVCAR-3; 8.09 µM (inactive) in the assay on HCT-116. The GI50 is 2.03 µM (inactive) with SW-620; 16.4 µM (inactive) with Malme-3M; 1.78 µM (inactive) in the assay on MDA-MB-435; 0.165 µM (active) in the assay on NCI-H522; 15.3 µM (inactive) in the assay on UACC-257.
With `CN(C)C1(c2cc3ccccc3s2)CCCCC1`, the GI50 was 47.2 µM (inactive) in the assay on OVCAR-4; 37.4 µM in the assay on HCT-15; 18 µM (inactive) with K562; 26.6 µM (inactive) with SF-295; 54.8 µM (inactive) in the assay on DU-145; 24.3 µM (inactive) in the assay with SK-MEL-2. Moreover, the GI50 in the assay on UO-31 is 30.9 µM (inactive); with A498, 32.8 µM (inactive); in the assay on MCF7 it was 48.6 µM (inactive); in the assay on HOP-92, 1.79 µM (inactive); in the assay with U-251, 43.6 µM (inactive); in the assay with OVCAR-3, 48.6 µM (inactive). Also, the GI50 is 33.9 µM (inactive) in the assay on HCT-116; 0.125 µM (active) in the assay with SW-620; 35.7 µM (inactive) in the assay with MDA-MB-435; 16.7 µM (inactive) in the assay with NCI-H522; 28.1 µM (inactive) in the assay with UACC-257.
Consider `N#CC12CC3(CCC1CCC1(C2)OCCO1)OCCO3` (configuration not stated), for which the GI50 was > 100 µM (inactive) in the assay on OVCAR-4; greater than 100 µM in the assay on HCT-15; > 100 µM (inactive) in the assay with K562; > 100 µM (inactive) with SF-295; > 100 µM (inactive) in the assay on SK-MEL-2; > 100 µM (inactive) in the assay with UO-31. Moreover, the GI50 with A498, in the assay on RPMI-8226, with HOP-92, in the assay on U-251, in the assay on OVCAR-3 and with HCT-116 was > 100 µM (inactive) each time. The GI50 with SW-620, with Malme-3M, with NCI-H522 and in the assay on UACC-257 was > 100 µM (inactive) each time.
With `Nc1ccccc1N`, the GI50 in the assay with OVCAR-4 is > 100 µM (inactive); in the assay with HCT-15 it was greater than 100 µM; in the assay with K562 it was > 100 µM (inactive); in the assay with SF-295, > 100 µM (inactive); with SK-MEL-2, > 100 µM (inactive); with UO-31, > 100 µM (inactive). The GI50 in the assay with A498 is > 100 µM (inactive); in the assay with RPMI-8226, 32 µM (inactive); in the assay with HOP-92 it was > 100 µM (inactive); with U-251, > 100 µM (inactive); in the assay with OVCAR-3, > 100 µM (inactive); in the assay with HCT-116 it was > 100 µM (inactive). For the same compound, the GI50 with SW-620 was > 100 µM (inactive); in the assay with Malme-3M it was > 100 µM (inactive); in the assay on NCI-H522 it was 15.5 µM (inactive).
As to `COc1cc(CC(=O)c2ccc3c(c2)OCO3)cc(OC)c1OC`, the GI50 with OVCAR-4 is > 100 µM (inactive); in the assay with HCT-15, greater than 100 µM; in the assay on K562, 93.5 µM (inactive); in the assay on SF-295 it was > 100 µM (inactive); in the assay with SK-MEL-2, > 100 µM (inactive); in the assay on UO-31, > 100 µM (inactive). In addition, the GI50 in the assay on A498 was > 100 µM (inactive); with RPMI-8226, 44 µM (inactive); with HOP-92, > 100 µM (inactive); in the assay with U-251, 46.6 µM (inactive); in the assay on OVCAR-3, > 100 µM (inactive); in the assay with HCT-116 it was > 100 µM (inactive). The GI50 was 19.3 µM (inactive) with SW-620, > 100 µM (inactive) in the assay with Malme-3M, > 100 µM (inactive) in the assay on NCI-H522 and > 100 µM (inactive) with UACC-257.
